Experimental data reported in ChEMBL document CHEMBL3232733, “Design, synthesis, crystallographic studies, and preliminary biological appraisal of new substituted triazolo[4,3-b]pyridazin-8-amine derivatives as tankyrase inhibitors” (J Med Chem, 2014).
Active and inactive are the calls of the source. No cut-off for these calls is given here.

Tests used:
DLD-1 = test: Cytotoxicity against human DLD1 cells assessed as growth inhibition at 1 to 20 uM measured on day 10 by crystal violet staining; type: functional, cell-based
[1] = target: T1, Protein mono-ADP-ribosyltransferase PARP10 (Homo sapiens) (UniProt Q53GL7); details: 10 uM
T1 sequence (whole entry): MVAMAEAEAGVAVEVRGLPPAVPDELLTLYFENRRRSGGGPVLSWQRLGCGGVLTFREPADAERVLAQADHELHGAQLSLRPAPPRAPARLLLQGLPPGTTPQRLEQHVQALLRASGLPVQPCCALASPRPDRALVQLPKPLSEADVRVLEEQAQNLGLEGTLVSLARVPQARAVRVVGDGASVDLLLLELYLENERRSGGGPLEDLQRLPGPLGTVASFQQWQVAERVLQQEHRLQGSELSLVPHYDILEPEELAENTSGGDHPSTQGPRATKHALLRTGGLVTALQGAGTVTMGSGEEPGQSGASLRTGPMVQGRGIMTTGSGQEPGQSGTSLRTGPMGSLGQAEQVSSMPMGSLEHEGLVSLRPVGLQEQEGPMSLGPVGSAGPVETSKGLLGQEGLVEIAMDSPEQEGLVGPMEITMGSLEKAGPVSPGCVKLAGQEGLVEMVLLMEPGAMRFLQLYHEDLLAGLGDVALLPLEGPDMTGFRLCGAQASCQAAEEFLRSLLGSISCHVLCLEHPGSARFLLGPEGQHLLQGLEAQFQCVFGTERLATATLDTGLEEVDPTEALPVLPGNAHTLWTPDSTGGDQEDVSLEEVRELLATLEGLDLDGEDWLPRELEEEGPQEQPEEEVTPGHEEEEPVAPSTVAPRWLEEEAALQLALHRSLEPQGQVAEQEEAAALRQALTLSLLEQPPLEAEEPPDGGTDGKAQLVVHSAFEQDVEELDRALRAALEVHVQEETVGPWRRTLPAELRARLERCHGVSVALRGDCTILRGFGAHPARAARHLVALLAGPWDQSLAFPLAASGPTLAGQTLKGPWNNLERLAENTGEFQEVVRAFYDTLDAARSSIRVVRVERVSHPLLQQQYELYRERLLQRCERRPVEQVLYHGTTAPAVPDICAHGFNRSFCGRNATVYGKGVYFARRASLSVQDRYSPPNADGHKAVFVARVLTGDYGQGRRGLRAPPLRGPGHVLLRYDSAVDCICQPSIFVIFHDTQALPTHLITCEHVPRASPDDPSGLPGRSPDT
Description: Inhibition of recombinant human PARP-10 at 10 uM relative to control

[2] = target: T2, Protein mono-ADP-ribosyltransferase PARP3 (Homo sapiens) (UniProt Q9Y6F1); details: 10 uM
T2 sequence (whole entry): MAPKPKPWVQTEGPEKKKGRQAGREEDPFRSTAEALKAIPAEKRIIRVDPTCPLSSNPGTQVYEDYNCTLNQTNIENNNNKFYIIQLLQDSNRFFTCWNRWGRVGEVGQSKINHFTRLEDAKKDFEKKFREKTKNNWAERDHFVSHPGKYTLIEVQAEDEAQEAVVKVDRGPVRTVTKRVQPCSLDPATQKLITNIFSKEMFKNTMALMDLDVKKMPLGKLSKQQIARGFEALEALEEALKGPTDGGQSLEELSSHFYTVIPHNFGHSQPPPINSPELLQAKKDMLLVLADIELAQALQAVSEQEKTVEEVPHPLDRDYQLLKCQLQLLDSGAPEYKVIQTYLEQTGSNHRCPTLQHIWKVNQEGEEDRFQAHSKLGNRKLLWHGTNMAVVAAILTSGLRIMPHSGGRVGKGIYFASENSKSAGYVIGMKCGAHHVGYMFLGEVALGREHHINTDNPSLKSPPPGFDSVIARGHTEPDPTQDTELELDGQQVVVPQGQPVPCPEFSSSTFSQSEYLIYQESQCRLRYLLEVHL
Description: Inhibition of recombinant human PARP-3 at 10 uM relative to control

[3] = target: T3, Protein mono-ADP-ribosyltransferase PARP8 (Homo sapiens) (UniProt Q8N3A8); details: 10 uM
T3 sequence (whole entry): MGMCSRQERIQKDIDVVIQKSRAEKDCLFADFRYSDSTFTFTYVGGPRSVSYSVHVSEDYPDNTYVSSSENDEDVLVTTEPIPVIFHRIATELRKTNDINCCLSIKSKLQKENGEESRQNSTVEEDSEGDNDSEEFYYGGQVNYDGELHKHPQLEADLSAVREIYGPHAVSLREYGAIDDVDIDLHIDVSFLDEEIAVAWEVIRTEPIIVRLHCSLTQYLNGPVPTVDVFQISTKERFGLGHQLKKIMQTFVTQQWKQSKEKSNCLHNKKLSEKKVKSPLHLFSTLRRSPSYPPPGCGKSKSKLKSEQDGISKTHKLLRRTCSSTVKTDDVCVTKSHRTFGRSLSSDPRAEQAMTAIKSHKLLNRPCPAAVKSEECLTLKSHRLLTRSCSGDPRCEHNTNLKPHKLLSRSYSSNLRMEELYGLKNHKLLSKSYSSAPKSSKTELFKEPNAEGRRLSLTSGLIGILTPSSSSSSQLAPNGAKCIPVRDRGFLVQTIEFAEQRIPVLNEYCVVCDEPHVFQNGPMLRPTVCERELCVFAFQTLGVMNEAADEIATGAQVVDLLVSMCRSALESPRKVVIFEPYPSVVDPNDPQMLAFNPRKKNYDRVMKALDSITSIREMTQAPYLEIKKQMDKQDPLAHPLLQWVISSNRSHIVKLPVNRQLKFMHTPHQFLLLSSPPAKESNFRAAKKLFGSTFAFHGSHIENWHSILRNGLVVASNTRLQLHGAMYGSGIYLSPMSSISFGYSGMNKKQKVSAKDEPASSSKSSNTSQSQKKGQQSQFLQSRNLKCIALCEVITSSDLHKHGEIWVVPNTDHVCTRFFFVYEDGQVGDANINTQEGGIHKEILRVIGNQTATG
Description: Inhibition of recombinant human PARP-8 at 10 uM relative to control

[4] = target: T4, Protein mono-ADP-ribosyltransferase TIPARP (Homo sapiens) (UniProt Q7Z3E1); details: 10 uM
T4 sequence (whole entry): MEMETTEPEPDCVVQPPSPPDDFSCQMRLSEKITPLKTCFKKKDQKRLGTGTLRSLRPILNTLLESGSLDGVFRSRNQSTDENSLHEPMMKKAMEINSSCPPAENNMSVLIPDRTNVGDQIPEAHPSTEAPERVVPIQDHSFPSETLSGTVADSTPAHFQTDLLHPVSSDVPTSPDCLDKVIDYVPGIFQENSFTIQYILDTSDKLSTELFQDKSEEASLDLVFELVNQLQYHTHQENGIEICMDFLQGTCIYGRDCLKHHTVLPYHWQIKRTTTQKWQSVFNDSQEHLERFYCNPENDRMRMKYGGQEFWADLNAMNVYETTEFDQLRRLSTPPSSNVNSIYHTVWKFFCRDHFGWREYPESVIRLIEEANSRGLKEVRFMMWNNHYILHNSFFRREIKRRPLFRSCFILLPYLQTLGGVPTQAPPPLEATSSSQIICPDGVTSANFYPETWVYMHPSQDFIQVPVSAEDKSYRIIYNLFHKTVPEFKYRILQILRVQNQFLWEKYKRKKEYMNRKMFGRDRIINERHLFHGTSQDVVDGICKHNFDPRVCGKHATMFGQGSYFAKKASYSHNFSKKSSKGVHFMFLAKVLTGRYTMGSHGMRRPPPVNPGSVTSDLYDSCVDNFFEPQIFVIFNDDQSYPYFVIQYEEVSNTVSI
Description: Inhibition of recombinant human PARP-7 at 10 uM relative to control

[5] = target: Poly [ADP-ribose] polymerase 1 (Homo sapiens, UniProt P09874); test: Inhibition of recombinant human PARP-1
[6] = target: Poly [ADP-ribose] polymerase 2 (Homo sapiens, UniProt Q9UGN5); test: Inhibition of recombinant human PARP-2
[7] = target: Protein mono-ADP-ribosyltransferase PARP6 (Homo sapiens) (UniProt Q2NL67); details: 10 uM
Protein mono-ADP-ribosyltransferase PARP6 (Homo sapiens), sequence (Q2NL67 whole entry): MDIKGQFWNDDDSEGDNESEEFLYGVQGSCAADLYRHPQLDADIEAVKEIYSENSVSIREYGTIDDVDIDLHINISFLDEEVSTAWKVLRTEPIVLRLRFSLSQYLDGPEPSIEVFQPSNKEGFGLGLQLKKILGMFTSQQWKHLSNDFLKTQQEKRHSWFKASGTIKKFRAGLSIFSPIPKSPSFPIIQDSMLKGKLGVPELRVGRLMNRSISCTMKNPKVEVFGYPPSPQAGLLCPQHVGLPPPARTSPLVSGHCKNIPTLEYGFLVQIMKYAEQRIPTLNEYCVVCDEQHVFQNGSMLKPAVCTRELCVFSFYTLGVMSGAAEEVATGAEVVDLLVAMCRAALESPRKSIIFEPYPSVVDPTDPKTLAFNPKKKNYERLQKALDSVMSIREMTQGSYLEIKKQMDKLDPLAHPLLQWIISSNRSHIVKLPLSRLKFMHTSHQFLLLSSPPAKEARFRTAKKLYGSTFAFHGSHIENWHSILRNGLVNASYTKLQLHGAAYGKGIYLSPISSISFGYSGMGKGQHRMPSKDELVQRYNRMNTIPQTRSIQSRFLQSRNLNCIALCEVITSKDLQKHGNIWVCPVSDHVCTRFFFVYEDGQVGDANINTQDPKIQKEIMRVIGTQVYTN
Description: Inhibition of recombinant human PARP-6 at 10 uM relative to control

Poly [ADP-ribose] polymerase 2, sequence (Q9UGN5 whole entry): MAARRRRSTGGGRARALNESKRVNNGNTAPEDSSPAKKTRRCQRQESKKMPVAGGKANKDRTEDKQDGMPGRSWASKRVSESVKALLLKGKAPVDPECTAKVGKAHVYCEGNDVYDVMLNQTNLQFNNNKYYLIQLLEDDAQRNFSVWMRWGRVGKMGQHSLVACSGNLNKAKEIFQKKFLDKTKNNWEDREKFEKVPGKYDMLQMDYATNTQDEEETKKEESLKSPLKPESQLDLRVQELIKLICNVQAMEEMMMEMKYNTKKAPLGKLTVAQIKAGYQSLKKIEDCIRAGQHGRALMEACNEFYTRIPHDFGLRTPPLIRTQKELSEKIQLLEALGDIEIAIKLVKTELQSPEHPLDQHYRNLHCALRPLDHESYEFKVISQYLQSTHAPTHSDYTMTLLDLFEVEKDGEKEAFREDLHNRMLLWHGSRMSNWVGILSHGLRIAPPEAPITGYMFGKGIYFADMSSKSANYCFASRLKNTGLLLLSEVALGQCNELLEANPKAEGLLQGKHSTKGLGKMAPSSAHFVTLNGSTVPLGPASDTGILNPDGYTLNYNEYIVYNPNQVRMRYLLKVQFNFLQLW
Poly [ADP-ribose] polymerase 1, sequence (P09874 whole entry): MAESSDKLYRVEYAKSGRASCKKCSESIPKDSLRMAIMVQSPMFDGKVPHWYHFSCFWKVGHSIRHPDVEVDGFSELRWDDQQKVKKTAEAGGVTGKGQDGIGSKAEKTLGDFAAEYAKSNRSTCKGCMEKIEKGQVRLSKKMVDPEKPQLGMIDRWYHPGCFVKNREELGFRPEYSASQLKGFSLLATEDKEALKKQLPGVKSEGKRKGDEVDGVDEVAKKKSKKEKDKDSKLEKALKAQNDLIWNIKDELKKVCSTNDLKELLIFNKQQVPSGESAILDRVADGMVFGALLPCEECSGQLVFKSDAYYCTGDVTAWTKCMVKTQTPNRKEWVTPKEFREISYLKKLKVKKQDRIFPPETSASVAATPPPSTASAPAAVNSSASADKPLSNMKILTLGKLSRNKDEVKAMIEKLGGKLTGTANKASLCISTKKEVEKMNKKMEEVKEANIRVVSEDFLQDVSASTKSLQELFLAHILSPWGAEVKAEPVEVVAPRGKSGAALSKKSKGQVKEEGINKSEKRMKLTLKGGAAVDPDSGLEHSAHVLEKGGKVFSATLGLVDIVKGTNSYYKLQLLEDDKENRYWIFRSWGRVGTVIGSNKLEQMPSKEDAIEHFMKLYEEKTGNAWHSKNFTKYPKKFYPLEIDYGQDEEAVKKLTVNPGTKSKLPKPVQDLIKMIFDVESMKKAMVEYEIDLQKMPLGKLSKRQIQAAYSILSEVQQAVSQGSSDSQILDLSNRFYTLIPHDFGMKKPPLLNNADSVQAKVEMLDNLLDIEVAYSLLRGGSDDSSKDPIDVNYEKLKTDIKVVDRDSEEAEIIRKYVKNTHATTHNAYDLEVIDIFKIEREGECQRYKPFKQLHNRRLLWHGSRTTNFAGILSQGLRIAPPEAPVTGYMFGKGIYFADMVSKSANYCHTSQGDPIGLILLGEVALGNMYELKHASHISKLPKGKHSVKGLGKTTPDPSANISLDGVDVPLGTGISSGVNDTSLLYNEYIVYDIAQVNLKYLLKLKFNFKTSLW

## O=C(Nc1cccc2cccnc12)c1ccc(N2C(=O)[C@@H]3[C@H](C2=O)[C@@H]2C=C[C@H]3C2)cc1
DLD-1
  growth inhibition (GI): Active

## O=C(c1cc(Cc2n[nH]c(=O)c3ccccc23)ccc1F)N1CCN(C(=O)C2CC2)CC1
[1]
  inhibition: > 70%

## Cc1cc(NCCc2ccc(O)cc2)c2nncn2n1
[2]
  inhibition: inactive
[3]
  inhibition: inactive
[1]
  inhibition: inactive
DLD-1
  growth inhibition (GI): Active
[4]
  inhibition: inactive
[5]
  IC50: > 10 µM
[6]
  IC50: > 10 µM
[7]
  inhibition: inactive

## Oc1nc(-c2ccc(C(F)(F)F)cc2)nc2c1CSCC2
DLD-1
  growth inhibition (GI): Active
